From patent US9624228B2, “Inhibitors of ERK and methods of use” (KURA ONCOLOGY, INC., priority 2013, dated 2017) come the findings set out here.

In the first assay the target is ERK2 enzyme (Homo sapiens (Human), UniProt P28482). The assay is described as follows: Inhibition assay of ERK (Z'-LYTE kinase assay, Ser/Thr 3 peptide substrate). In kind it is biochemical. Conditions: In vitro ERK2 enzyme, 100 μM ATP.
Chain of ERK2 enzyme (P28482 whole entry): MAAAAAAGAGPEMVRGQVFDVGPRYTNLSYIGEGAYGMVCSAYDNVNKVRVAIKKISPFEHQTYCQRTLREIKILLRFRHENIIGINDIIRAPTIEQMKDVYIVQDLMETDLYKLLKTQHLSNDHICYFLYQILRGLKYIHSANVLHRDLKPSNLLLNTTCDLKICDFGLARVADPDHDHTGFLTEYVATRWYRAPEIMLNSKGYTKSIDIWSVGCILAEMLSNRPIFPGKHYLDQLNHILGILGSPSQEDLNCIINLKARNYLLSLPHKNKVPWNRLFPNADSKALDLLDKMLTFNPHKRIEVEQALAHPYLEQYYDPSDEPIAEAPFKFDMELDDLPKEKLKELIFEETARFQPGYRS
By IC50 is commonly meant the midpoint of a concentration-inhibition curve. A lower IC50 goes with greater potency. Compound `Cc1cc(-c2n[nH]c3cc4c(cc23)CN([C@@H]2CCCN(Cc3cccc(F)c3)C2)C(=O)N4)ccn1` [Compound 184] had an IC50 of under 50 nM. `Cc1cc(-c2n[nH]c3cc4c(cc23)CN([C@@H]2CCCN(C3CCCCC3)C2)C(=O)N4)ccn1` [Compound 194] yielded an IC50 of 50 to 250 nM. The same measure, in the same setting: the same measure for `COc1ccc(-c2n[nH]c3cc4c(cc23)CN(CCc2ccc(F)cc2)C(=O)N4)cn1` [Compound 79]: under 50 nM; for `Cc1cc(-c2n[nH]c3cc4c(cc23)CN(Cc2ccc(F)cc2)C(=O)N4)ccn1` [Compound 30]: under 50 nM.

Regarding `Cc1cc(-c2n[nH]c3cc4c(cc23)CN([C@@H]2CCN(CCc3ccccc3)C2)C(=O)N4)ccn1` [Compound 153], the IC50 was under 50 nM. Turning to `O=C1Nc2cc3[nH]nc(-c4cccnc4)c3cc2CN1Cc1cccc(Cl)c1` [Compound 57], the IC50 is under 50 nM. On the same count and under the same terms, the value for `Cc1cc(-c2n[nH]c3cc4c(cc23)CN(Cc2nccs2)C(=O)N4)ccn1` [Compound 56] was under 50 nM. In turn, `Cc1cc(-c2n[nH]c3cc4c(cc23)CN([C@@H]2CCCN(Cc3cc(C)no3)C2)C(=O)N4)ccn1` [Compound 139] returned an IC50 of under 50 nM. The compound `Cc1cc(-c2n[nH]c3cc4c(cc23)CN([C@@H]2CCCN(Cc3ccc(F)cc3)C2)C(=O)N4)ccn1` [Compound 151] displayed an IC50 of under 50 nM. `COCCOCCN1Cc2cc3c(-c4ccnc(C)c4)n[nH]c3cc2NC1=O` [Compound 45]: the IC50 was under 50 nM. Take `O=C1Nc2cc3[nH]nc(N4CCOCC4)c3cc2CN1Cc1cccc(Cl)c1` [Compound 78]: the IC50 was under 50 nM. `Cc1cc(-c2n[nH]c3cc4c(cc23)CN([C@@H]2CCCN(Cc3sc(C)nc3C)C2)C(=O)N4)ccn1` [Compound 195] showed an IC50 of 50 to 250 nM. In turn, `Nc1ncc(-c2n[nH]c3cc4c(cc23)CN(Cc2cccc(Cl)c2)C(=O)N4)cn1` [Compound 93] displayed an IC50 of under 50 nM. Regarding `COc1ncc(-c2n[nH]c3cc4c(cc23)CN([C@H](C)c2ccc(Cl)cc2)C(=O)N4)cn1` [Compound 95], the IC50 was under 50 nM. In turn, `Cc1cc(-c2n[nH]c3cc4c(cc23)CN([C@@H]2CCN(Cc3ccccc3)C2)C(=O)N4)ccn1` [Compound 146] gave an IC50 of under 50 nM.

As for `Cc1cc(-c2n[nH]c3cc4c(cc23)CN([C@@H]2CCCN(c3cccc(Cl)c3)C2)C(=O)N4)ccn1` [Compound 174], the IC50 is under 50 nM. In the case of `Cc1cc(-c2n[nH]c3cc4c(cc23)CN([C@H](C)c2ccc(C#N)cc2)C(=O)N4)ccn1` [Compound 23], the IC50 was under 50 nM.

Compound `CCC(=O)NCCN1Cc2cc3c(-c4cnc(OC)nc4)n[nH]c3cc2NC1=O` [Compound 106] returned an IC50 of 50 to 250 nM. Compound `O=C1Nc2cc3[nH]nc(-c4ccncc4)c3cc2CN1Cc1cccc(Cl)c1` [Compound 3] gave an IC50 of under 50 nM. The same measure, in the same setting: the value for `Cc1cc(-c2n[nH]c3cc4c(cc23)CN(CCc2ccc(F)cc2)C(=O)N4)ccn1` [Compound 18] was under 50 nM; that for `Cc1cc(-c2n[nH]c3cc4c(cc23)CN(CCN)C(=O)N4)ccn1` [Compound 83] was under 50 nM. In turn, `Cc1cc(-c2n[nH]c3cc4c(cc23)CN([C@@H]2CCCN(C(C)c3ccccc3)C2)C(=O)N4)ccn1` (some centres unmarked) [Compound 154] had an IC50 of under 50 nM. Same read-out and setting: the same measure for `Cc1cc(-c2n[nH]c3cc4c(cc23)CN(C2CN(CCC3CC3)C2)C(=O)N4)ccn1` [Compound 189]: 50 to 250 nM; for `COCCN1Cc2cc3c(-c4ccnc(C)c4)n[nH]c3cc2NC1=O` [Compound 52]: under 50 nM; for `COc1ncc(-c2n[nH]c3cc4c(cc23)CN(Cc2ccc(F)cc2)C(=O)N4)cn1` [Compound 72]: under 50 nM. As for `Cc1cc(-c2n[nH]c3cc4c(cc23)CN([C@@H]2CCCN(Cc3cccnc3C)C2)C(=O)N4)ccn1` [Compound 170], the IC50 is under 50 nM. Compound `Cc1cc(-c2n[nH]c3cc4c(cc23)CN([C@@H](C)c2cccc(Cl)c2)C(=O)N4)ccn1` [Compound 28] gave an IC50 of 50 to 250 nM.

In the case of `Cc1cc(-c2n[nH]c3cc4c(cc23)CN([C@@H]2CCCN(CCC(C)C)C2)C(=O)N4)ccn1` [Compound 169], the IC50 is under 50 nM.

Turning to `Cc1cc(-c2n[nH]c3cc4c(cc23)CN([C@@H]2CCCN(Cc3ncccc3C)C2)C(=O)N4)ccn1` [Compound 168], the IC50 is under 50 nM.

`COc1ccc(-c2n[nH]c3cc4c(cc23)CN([C@H](C)c2cccc(Cl)c2)C(=O)N4)cn1` [Compound 74] showed an IC50 of 50 to 250 nM.

In the case of `O=C1Nc2cc3[nH]nc(-c4ccnnc4)c3cc2CN1Cc1cc(F)cc(F)c1` [Compound 127], the IC50 is under 50 nM. `Cc1cc(-c2n[nH]c3cc4c(cc23)CN(CCO)C(=O)N4)ccn1` [Compound 43] returned an IC50 of under 50 nM. In turn, `N#Cc1cccc(CN2Cc3cc4c(-c5ccnnc5)n[nH]c4cc3NC2=O)c1` [Compound 128] returned an IC50 of under 50 nM. Turning to `Cc1cc(-c2n[nH]c3cc4c(cc23)CN(Cc2cc(F)cc(F)c2)C(=O)N4)ccn1` [Compound 7], the IC50 was under 50 nM. The compound `COc1ncc(-c2n[nH]c3cc4c(cc23)CN(C)CC(=O)N4)cn1` [Compound 109] showed an IC50 of over 1000 nM. Compound `Cc1cc(-c2n[nH]c3cc4c(cc23)CN(C2(c3ccc(F)cc3)CC2)C(=O)N4)ccn1` [Compound 17] showed an IC50 of 50 to 250 nM. Compound `Cn1cc(-c2n[nH]c3cc4c(cc23)CN(Cc2ccc(F)c(Cl)c2)C(=O)N4)cn1` [Compound 31] came in with an IC50 of under 50 nM. Turning to `O=C1Nc2cc3[nH]nc(-c4ccnnc4)c3cc2CN1Cc1ccc(F)cc1F` [Compound 114], the IC50 was under 50 nM.

The assay is the same for the next values; noted with them: In vitro, ERK2 enzyme 0.47 ng/μL, 100 μM ATP.
`Cc1cc(-c2n[nH]c3cc4c(cc23)CN([C@@H]2CCCN(c3ccc(F)cn3)C2)C(=O)N4)ccn1` [Compound 199] showed an IC50 of under 50 nM.

With `Cc1cc(-c2n[nH]c3cc4c(cc23)CN([C@H]2CN(Cc3ccccc3)CC(F)(F)C2)C(=O)N4)ccn1` [Compound 264], the IC50 was under 50 nM. For the compound `Cc1cc(-c2n[nH]c3cc4c(cc23)CN(C2CCCCC2)C(=O)N4)ccn1` [Compound 204], the IC50 is under 50 nM. `COc1cc(-c2n[nH]c3cc4c(cc23)CN([C@@H]2CCCN(Cc3ccc(F)cc3F)C2)C(=O)N4)ccn1` [Compound 271]: the IC50 was under 50 nM. `CC(c1ccccc1)c1cc2cc3c(N4CCN(C)CC4)n[nH]c3cc2[nH]c1=O` (centres unmarked) [Compound 358] had an IC50 of 50 to 250 nM. In turn, `Cc1cc(-c2n[nH]c3cc4c(cc23)CN([C@@H]2CCCN(C(C)C)C2)C(=O)N4)ccn1` [Compound 247] had an IC50 of under 50 nM.

`Cc1cc(-c2n[nH]c3cc4c(cc23)CN(C2CCOC(C)(C)C2)C(=O)N4)ccn1` (centres unmarked) [Compound 219] gave an IC50 of under 50 nM. `Cn1cc(-c2n[nH]c3cc4c(cc23)CN([C@@H]2CCCN(Cc3ccc(F)cc3F)C2)C(=O)N4)cn1` [Compound 281] returned an IC50 of under 50 nM. `Cc1cc(-c2n[nH]c3cc4c(cc23)CN([C@H]2CCN(CC(F)(F)F)C2)C(=O)N4)cc(C)n1` [Compound 310] had an IC50 of under 50 nM. The same measure, in the same setting: the same measure for `COc1ncc(-c2n[nH]c3cc4c(cc23)CN([C@@H]2CCCN(Cc3ccc(F)cc3F)C2)C(=O)N4)cn1` [Compound 280]: under 50 nM; for `Cc1cc(-c2n[nH]c3cc4c(cc23)CN([C@@H]2CN(C)C[C@H]2c2ccccc2F)C(=O)N4)cc(C)n1` (racemic) [Compound 306]: under 50 nM; for `Cc1cc(-c2n[nH]c3cc4c(cc23)CN([C@@H]2CN(CC(F)(F)F)C[C@H]2c2ccccc2)C(=O)N4)cc(C)n1` [Compound 339]: under 50 nM. `COc1ncc(-c2n[nH]c3cc4c(cc23)CN([C@@H]2CCN(CC(F)(F)F)C2)C(=O)N4)cn1` [Compound 276] yielded an IC50 of under 50 nM. Consider `Cc1cc(-c2n[nH]c3cc4c(cc23)CN(Cc2ccccc2)C(=O)N4)cc(C)n1` [Compound 229], for which the IC50 was under 50 nM.

In turn, `Cc1cc(-c2n[nH]c3cc4c(cc23)CN(Cc2ccccc2)C(=O)N4)ccn1` [Compound 372] registered an IC50 of under 50 nM.

Compound `CC(c1ccccc1)c1cc2cc3c(-c4cnn(C)c4)n[nH]c3cc2[nH]c1=O` (centres unmarked) [Compound 333] returned an IC50 of under 50 nM. The same measure, in the same setting: the value for `O=C1Nc2cc3[nH]nc(-c4cccnc4)c3cc2CN1[C@@H]1CN(CC(F)(F)F)C[C@H]1c1ccccc1` [Compound 341] was under 50 nM. `Cc1cc(-c2n[nH]c3cc4c(cc23)CN([C@@H]2CCCN(C3CCCC3)C2)C(=O)N4)ccn1` [Compound 215] had an IC50 of 50 to 250 nM. `COc1cc(-c2n[nH]c3cc4c(cc23)CN([C@@H]2CCCN(Cc3ccccc3)C2)C(=O)N4)ccn1` [Compound 270] yielded an IC50 of under 50 nM. Regarding `Cc1cc(-c2n[nH]c3cc4c(cc23)CN([C@H]2CN(C)C[C@@H]2c2ccccc2)C(=O)N4)cc(C)n1` [Compound 307], the IC50 was 50 to 250 nM. Still for that read-out and setting: the same measure for `COc1ccc(-c2n[nH]c3cc4c(cc23)CN([C@@H]2CCCN(Cc3ccc(F)cc3F)C2)C(=O)N4)cn1` [Compound 273]: under 50 nM.

Regarding `Cc1cc(-c2n[nH]c3cc4c(cc23)CN([C@@H]2CCCN(Cc3sccc3F)C2)C(=O)N4)ccn1` [Compound 291], the half-inhibitory concentration (IC50) was under 50 nM. `Cc1cc(-c2n[nH]c3cc4c(cc23)CN(C2CCCC2)C(=O)N4)ccn1` [Compound 205] gave an IC50 of under 50 nM.

Turning to `Cc1cc(-c2n[nH]c3cc4c(cc23)CN([C@@H]2CCCN(Cc3ccsc3)C2)C(=O)N4)ccn1` [Compound 252], the IC50 is under 50 nM. Compound `Cc1ccc(-c2n[nH]c3cc4c(cc23)CN([C@@H]2CCCN(Cc3ccccc3)C2)C(=O)N4)cn1` [Compound 275] gave an IC50 of under 50 nM.

Turning to `Cc1cc(-c2n[nH]c3cc4c(cc23)CN(Cc2ccccc2C(F)(F)F)C(=O)N4)ccn1` [Compound 218], the IC50 was under 50 nM. In turn, `Cc1cc(-c2n[nH]c3cc4c(cc23)CN(Cc2cccc(C(F)(F)F)c2)C(=O)N4)ccn1` [Compound 240] gave an IC50 of under 50 nM. As to `CC(c1ccccc1)c1cc2cc3c(-c4ccc(=O)n(C)c4)n[nH]c3cc2[nH]c1=O` (centres unmarked) [Compound 347], the IC50 is under 50 nM.

`Cn1cc(-c2n[nH]c3cc4c(cc23)CN([C@@H]2CCN(CC(F)(F)F)C2)C(=O)N4)cn1` [Compound 259] gave an IC50 of under 50 nM. `Cc1cc(-c2n[nH]c3cc4[nH]c(=O)c(C(C)c5ccc(F)cc5F)cc4cc23)ccn1` (centres unmarked) [Compound 312] registered an IC50 of 50 to 250 nM.
